This is an account of results in ChEMBL document CHEMBL4610007, “Design and synthesis of boron-containing diphenylpyrimidines as potent BTK and JAK3 dual inhibitors” (Bioorg Med Chem, 2020).

Bounds are passed on as bounds.

Data set [1] has as its target Tyrosine-protein kinase BTK (Homo sapiens, UniProt Q06187).
Description: Inhibition of recombinant human His-tagged full length BTK expressed in baculovirus expression system using Ulight-Poly GT as substrate incubated for 2 hrs by Lanthascreen TR-FRET assay
For data set [2], the target named is Tyrosine-protein kinase JAK1 (Homo sapiens, UniProt P23458). In words: Inhibition of recombinant human N-terminal GST-tagged JAK1 (850 to 1154 residues) expressed in baculovirus expression system using Ulight-Poly GT as substrate incubated for 2 hrs by Lanthascreen TR-FRET assay.
Tyrosine-protein kinase JAK1, sequence (P23458 whole entry, the tested form may be a part): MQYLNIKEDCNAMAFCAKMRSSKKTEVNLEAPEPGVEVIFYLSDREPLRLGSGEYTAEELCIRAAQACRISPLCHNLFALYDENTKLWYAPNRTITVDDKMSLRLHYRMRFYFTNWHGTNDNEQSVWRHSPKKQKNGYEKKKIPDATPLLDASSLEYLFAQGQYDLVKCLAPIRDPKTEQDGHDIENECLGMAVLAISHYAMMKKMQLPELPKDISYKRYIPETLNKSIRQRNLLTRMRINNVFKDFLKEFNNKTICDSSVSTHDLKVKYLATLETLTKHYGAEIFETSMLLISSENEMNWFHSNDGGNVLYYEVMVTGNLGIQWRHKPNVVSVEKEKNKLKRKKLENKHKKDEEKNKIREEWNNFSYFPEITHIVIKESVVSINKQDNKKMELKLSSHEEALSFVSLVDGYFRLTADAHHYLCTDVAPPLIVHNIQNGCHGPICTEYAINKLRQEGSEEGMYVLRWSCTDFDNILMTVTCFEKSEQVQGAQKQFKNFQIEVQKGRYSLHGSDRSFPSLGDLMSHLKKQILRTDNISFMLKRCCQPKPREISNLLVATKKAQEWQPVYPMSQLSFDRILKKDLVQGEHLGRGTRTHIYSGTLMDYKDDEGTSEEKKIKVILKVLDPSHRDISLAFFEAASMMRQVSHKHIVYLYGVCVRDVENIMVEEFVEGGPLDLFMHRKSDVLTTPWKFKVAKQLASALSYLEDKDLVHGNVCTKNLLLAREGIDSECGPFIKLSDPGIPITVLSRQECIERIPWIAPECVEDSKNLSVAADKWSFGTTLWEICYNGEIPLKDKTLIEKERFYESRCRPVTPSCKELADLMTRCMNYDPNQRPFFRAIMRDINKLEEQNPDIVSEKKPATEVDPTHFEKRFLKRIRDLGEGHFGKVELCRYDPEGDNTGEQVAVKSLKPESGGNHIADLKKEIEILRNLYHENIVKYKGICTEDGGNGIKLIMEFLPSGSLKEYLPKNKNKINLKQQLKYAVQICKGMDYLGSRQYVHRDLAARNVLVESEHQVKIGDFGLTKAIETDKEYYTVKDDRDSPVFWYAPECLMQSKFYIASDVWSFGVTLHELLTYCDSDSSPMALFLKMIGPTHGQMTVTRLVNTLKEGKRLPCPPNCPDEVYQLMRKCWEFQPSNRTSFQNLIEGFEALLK
In data set [3] the target is Non-receptor tyrosine-protein kinase TYK2 (Homo sapiens, UniProt P29597). The data set is described as follows: Inhibition of recombinant human N-terminal GST-tagged TYK2 (871 to 1187 residues) expressed in baculovirus expression system using Ulight-Poly GT as substrate incubated for 2 hrs by Lanthascreen TR-FRET assay.
Non-receptor tyrosine-protein kinase TYK2, sequence (P29597 whole entry, the tested form may be a part): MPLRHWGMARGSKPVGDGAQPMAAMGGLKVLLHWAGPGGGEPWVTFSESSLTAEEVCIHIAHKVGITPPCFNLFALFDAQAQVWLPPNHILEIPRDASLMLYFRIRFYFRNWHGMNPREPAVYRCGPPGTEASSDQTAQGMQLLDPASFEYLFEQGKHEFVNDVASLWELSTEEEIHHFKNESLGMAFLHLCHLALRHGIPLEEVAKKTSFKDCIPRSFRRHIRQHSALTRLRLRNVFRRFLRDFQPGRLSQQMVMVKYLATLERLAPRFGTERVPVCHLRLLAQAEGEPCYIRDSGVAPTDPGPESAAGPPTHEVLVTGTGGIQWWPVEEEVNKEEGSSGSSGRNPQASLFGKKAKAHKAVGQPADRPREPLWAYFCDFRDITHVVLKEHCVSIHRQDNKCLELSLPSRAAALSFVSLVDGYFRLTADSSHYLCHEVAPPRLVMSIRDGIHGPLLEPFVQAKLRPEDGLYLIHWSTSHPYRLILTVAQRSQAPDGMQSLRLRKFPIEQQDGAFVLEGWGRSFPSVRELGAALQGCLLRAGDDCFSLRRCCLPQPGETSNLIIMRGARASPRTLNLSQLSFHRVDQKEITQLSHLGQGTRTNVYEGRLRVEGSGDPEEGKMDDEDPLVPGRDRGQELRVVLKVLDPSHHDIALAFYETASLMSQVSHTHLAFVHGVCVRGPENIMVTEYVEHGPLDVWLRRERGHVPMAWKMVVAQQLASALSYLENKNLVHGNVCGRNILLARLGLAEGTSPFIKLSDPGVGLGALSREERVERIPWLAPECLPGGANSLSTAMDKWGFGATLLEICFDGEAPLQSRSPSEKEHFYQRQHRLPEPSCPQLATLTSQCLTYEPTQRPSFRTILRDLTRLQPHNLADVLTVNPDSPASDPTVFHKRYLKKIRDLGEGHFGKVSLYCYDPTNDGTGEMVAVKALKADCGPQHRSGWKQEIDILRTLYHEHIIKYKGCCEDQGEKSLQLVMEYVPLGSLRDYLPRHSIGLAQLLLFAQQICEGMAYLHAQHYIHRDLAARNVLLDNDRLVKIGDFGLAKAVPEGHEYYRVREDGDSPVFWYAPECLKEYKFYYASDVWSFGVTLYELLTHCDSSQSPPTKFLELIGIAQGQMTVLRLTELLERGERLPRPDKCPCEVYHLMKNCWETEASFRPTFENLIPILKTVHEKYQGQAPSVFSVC
Data set [4] is filed under the species Homo sapiens. The data set is described as follows: Selectivity index, ratio of IC50 for recombinant human N-terminal GST-tagged JAK1 (850 to 1154 residues) expressed in baculovirus expression system to IC50 for recombinant human N-terminal His-tagged JAK3 (795 to 1124 residues) expressed in baculovirus expression system.
The species named for data set [5] is Homo sapiens. In words: Selectivity index, ratio of IC50 for recombinant human N-terminal His-tagged JAK2 (826 to 1132 residues) expressed in baculovirus expression system to IC50 for recombinant human N-terminal His-tagged JAK3 (795 to 1124 residues) expressed in baculovirus expression system.
The species entered for data set [6] is Homo sapiens. In words: Selectivity index, ratio of IC50 for recombinant human N-terminal GST-tagged TYK2 (871 to 1187 residues) expressed in baculovirus expression system to IC50 for recombinant human N-terminal His-tagged JAK3 (795 to 1124 residues) expressed in baculovirus expression system.
For data set [7], the target named is Tyrosine-protein kinase JAK2 (Homo sapiens, UniProt O60674).
Tyrosine-protein kinase JAK2, sequence (O60674 whole entry): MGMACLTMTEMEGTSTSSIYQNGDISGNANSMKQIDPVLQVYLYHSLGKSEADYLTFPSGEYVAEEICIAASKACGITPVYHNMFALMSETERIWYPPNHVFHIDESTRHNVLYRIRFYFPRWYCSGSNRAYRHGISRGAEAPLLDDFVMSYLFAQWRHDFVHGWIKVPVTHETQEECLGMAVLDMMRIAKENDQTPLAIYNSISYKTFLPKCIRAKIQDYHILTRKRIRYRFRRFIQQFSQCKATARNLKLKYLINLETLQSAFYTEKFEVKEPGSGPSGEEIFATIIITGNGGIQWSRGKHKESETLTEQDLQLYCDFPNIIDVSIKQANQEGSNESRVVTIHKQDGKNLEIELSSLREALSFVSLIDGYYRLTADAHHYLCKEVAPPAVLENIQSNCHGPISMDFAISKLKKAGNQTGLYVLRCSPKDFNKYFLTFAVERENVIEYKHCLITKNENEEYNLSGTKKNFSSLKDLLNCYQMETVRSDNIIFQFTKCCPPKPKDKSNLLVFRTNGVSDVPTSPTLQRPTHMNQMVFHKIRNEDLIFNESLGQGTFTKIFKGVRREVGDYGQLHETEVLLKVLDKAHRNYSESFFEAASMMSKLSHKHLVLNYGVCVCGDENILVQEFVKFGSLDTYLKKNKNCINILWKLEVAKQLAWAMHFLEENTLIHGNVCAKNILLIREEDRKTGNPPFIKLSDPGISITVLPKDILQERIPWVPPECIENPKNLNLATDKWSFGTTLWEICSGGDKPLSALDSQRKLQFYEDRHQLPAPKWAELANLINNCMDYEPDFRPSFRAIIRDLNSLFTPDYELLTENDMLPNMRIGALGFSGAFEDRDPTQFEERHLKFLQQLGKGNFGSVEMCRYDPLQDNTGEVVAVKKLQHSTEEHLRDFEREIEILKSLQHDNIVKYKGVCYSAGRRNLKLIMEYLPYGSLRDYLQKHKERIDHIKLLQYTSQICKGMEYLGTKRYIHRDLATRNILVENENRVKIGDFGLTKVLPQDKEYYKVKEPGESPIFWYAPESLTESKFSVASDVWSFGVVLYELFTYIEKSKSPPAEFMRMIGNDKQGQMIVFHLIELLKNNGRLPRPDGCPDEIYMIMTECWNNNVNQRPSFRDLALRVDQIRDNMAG
Description: Inhibition of recombinant human N-terminal His-tagged JAK2 (826 to 1132 residues) expressed in baculovirus expression system using Ulight-Poly GT as substrate incubated for 2 hrs by Lanthascreen TR-FRET assay
The target of data set [8] is T1, Tyrosine-protein kinase JAK3 (Homo sapiens, UniProt P52333).
T1 sequence (P52333 whole entry): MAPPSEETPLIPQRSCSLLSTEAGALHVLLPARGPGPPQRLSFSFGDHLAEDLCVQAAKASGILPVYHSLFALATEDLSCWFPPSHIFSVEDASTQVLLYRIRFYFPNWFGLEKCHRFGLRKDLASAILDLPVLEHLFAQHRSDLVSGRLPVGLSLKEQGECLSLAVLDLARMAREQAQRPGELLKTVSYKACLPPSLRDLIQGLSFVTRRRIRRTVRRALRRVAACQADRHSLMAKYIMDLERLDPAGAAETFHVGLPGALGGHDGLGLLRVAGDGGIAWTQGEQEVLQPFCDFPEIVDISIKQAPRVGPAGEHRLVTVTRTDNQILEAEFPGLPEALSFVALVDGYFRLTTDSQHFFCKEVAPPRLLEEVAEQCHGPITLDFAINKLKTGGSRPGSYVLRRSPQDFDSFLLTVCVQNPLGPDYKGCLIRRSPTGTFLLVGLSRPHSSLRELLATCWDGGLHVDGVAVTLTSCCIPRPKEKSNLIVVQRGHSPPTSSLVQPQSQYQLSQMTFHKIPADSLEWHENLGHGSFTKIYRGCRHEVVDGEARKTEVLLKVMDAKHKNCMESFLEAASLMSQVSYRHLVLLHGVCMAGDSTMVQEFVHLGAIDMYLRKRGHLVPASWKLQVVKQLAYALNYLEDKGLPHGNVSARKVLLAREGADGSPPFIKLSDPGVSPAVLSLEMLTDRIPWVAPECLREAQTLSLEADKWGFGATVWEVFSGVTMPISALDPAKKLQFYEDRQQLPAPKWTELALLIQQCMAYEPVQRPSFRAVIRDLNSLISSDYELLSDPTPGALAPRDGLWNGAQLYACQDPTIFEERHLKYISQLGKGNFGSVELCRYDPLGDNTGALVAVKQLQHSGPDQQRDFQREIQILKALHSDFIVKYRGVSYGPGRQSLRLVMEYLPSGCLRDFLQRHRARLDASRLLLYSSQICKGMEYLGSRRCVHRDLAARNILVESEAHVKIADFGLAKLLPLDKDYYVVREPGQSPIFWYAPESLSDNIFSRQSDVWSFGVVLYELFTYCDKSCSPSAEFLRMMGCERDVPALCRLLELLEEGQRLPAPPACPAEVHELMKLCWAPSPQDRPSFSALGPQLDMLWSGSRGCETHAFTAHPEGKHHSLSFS
Description: Inhibition of recombinant human N-terminal His-tagged JAK3 (795 to 1124 residues) expressed in baculovirus expression system using Ulight-Poly GT as substrate incubated for 2 hrs by Lanthascreen TR-FRET assay

The next data set has as its system Raji. The data set is described as follows: cells. The note with it: Homo sapiens, 72 h.
A further data set has as its system Ramos. In words: cells. The note with it: Homo sapiens, 72 h.
A further data set has as its system HEL. In words: cells. The conditions noted are these: Homo sapiens, 72 h.
The subject of a further data set is JeKo-1. The data set is described as follows: cells. The note with it: Homo sapiens, JeKo-1, 72 h.
In the next data set the test system is OCI-Ly10. The data set is described as follows: cells. The conditions noted are these: Homo sapiens, OCI-Ly10, 72 h.
Data set [9] in a line: in vitro. The conditions noted are these: human, liver microsomes.
Data set [10] can be described thus: in vitro. The conditions noted are these: human, liver microsomes. This is another data set of the same source.
The nature of data set [11]: in vitro. The conditions noted are these: human, liver microsomes. The source holds these as a separate data set.
Description: Metabolic stability in human liver microsomes assessed as compound remaining at 0.2 uM incubated for 60 mins by UPLC-MS/MS analysis

Tyrosine-protein kinase BTK, sequence (Q06187 whole entry, the tested form may be a part): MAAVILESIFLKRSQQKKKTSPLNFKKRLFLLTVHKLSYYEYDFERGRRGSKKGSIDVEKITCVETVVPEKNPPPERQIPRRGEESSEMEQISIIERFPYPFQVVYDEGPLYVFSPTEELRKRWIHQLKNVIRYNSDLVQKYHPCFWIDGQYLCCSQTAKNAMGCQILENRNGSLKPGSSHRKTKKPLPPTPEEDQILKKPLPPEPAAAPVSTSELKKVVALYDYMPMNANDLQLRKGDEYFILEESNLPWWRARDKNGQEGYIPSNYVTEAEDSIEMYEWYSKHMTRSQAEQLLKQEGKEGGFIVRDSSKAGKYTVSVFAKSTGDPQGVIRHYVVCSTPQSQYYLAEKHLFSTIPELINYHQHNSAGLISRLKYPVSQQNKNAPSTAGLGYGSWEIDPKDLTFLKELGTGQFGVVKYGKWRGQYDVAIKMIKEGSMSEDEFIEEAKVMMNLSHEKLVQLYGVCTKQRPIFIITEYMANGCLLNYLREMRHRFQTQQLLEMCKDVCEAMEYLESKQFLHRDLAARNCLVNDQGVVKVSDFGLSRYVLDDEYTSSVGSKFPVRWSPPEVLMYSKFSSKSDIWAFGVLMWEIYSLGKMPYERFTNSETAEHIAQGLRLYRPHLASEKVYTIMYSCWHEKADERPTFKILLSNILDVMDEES
Description for HEL: Antiproliferative activity against human HEL cells assessed as reduction in cell viability incubated for 72 hrs by CCK-8 assay
Description for JeKo-1: Antiproliferative activity against human JeKo1 cells assessed as reduction in cell viability incubated for 72 hrs by CCK-8 assay
Description for OCI-Ly10: Antiproliferative activity against human OCI-LY10 cells assessed as reduction in cell viability incubated for 72 hrs by CCK-8 assay
Description for Raji: Antiproliferative activity against human Raji cells assessed as reduction in cell viability incubated for 72 hrs by CCK-8 assay
Description for Ramos: Antiproliferative activity against human Ramos cells assessed as reduction in cell viability incubated for 72 hrs by CCK-8 assay

On to `C=CC(=O)Nc1cccc(Nc2nc(Nc3ccc4c(c3)B(O)OC4)ncc2F)c1`, for which the IC50 in data set [1] was 8.5 nM.
The same measure, in the same setting: for `C=CC(=O)Nc1cccc(Nc2nc(Nc3cccc(B(O)O)c3)ncc2C(F)(F)F)c1` the value was 6.5 nM; for `C=CC(=O)Nc1cccc(Nc2nc(Nc3ccc4c(c3)B(O)OC4)ncc2C)c1`, 6.1 nM.
Consider `C=CC(=O)Nc1cccc(Oc2nc(Nc3ccc4c(c3)COB4O)ncc2OC)c1`, for which the IC50 is greater than 1000 nM in data set [2]; greater than 1000 nM in data set [3]; 1.7 nM in data set [1]; greater than 1000 nM in data set [7]; 0.8 nM in data set [8]. For the same molecule, the Ratio IC50 in the data set filed under Homo sapiens [4], in the data set filed under Homo sapiens [5] and in the data set listed under Homo sapiens [6] was greater than 1000 in each case.
Turning to `C=CC(=O)Nc1cccc(Nc2nc(Nc3ccc4c(c3)B(O)OC4)ncc2C(F)(F)F)c1`, the half-maximal inhibitory concentration (IC50) in data set [2] is greater than 1000 nM; in [3], greater than 1000 nM; in [1] it was 2.9 nM; in [7], 972 nM; in data set [8] it was 0.5 nM; with Raji, 6800 nM. Moreover, the half-maximal inhibitory concentration (IC50) in the data set on Ramos was 2300 nM; in the data set with HEL, 5100 nM; with JeKo-1, 1200 nM; in the data set with OCI-Ly10, greater than 10000 nM. The Ratio IC50 in the data set filed under Homo sapiens [4], in the data set listed under Homo sapiens [5] and in the data set listed under Homo sapiens [6] was greater than 1000 throughout. Further, the half-life at 1 h, 0.2 µM in the data set “in vitro [9]” amounted to 55.9 min. In addition, the microsomal CLint at 1 h, 0.2 µM in “in vitro [10]” was 24.8 µL/min/mg. In “in vitro [11]”, this molecule gave a share remaining at 1 h, 0.2 µM of 45%.
For the molecule `C=CC(=O)Nc1cccc(Nc2nc(Nc3ccc(OCCOC)cc3)ncc2F)c1` [SPEBRUTINIB], the IC50 in [2] was greater than 1000 nM; in [7] it was 534 nM; in data set [8], 8.5 nM; in the data set on Raji it was 17600 nM; in the data set on Ramos, 3900 nM; in the data set with HEL it was 5300 nM. Moreover, the figures for the half-inhibitory concentration (IC50) with JeKo-1 and in the data set on OCI-Ly10 were 1300 nM and greater than 10000 nM, respectively. The same molecule yielded a half-life at 1 h, 0.2 µM in the data set “in vitro [9]” of 43.4 min. The microsomal CLint at 1 h, 0.2 µM in “in vitro [10]” was determined as 31.9 µL/min/mg. The molecule also gave a fraction remaining at 1 h, 0.2 µM in “in vitro [11]” of 38.8%.
In [1], `C=CC(=O)Nc1cccc(Nc2nc(Nc3cccc4c3B(O)OC4)ncc2C(F)(F)F)c1` gave a concentration for half-maximal inhibition (IC50) of 268 nM.
Turning to `C=CC(=O)Nc1cccc(Nc2nc(Nc3ccc4c(c3)B(O)OCC4)ncc2C(F)(F)F)c1`, the IC50 was greater than 1000 nM in [2]; greater than 1000 nM in data set [3]; 1.9 nM in data set [1]; greater than 1000 nM in data set [7]; 1.5 nM in data set [8]. Further, the Ratio IC50 in the data set listed under Homo sapiens [4], in the data set filed under Homo sapiens [5] and in the data set listed under Homo sapiens [6] was greater than 1000 throughout.
With `C=CC(=O)Nc1cccc(Nc2nc(NNc3ccccc3)ncc2C(F)(F)F)c1`, the IC50 in data set [1] was greater than 1000 nM.
With `C=CC(=O)Nc1cccc(Nc2nc(Nc3cccc4c3COB4O)ncc2C(F)(F)F)c1`, the midpoint of inhibition in data set [1], the IC50, lay at 63 nM.
For the molecule `C=CC(=O)Nc1cccc(Nc2nc(Nc3ccc4c(c3)COB4O)ncc2OC)c1`, the IC50 in data set [1] was determined as 8.2 nM.
Molecule `C=CC(=O)Nc1cccc(Nc2nc(Nc3cc4c(cc3F)COB4O)ncc2C(F)(F)F)c1` yielded an IC50 in data set [1] of 156 nM.
As for `C=CC(=O)Nc1cccc(Nc2nc(Oc3ccc4c(c3)B(O)OC4)ncc2C(F)(F)F)c1`, the half-maximal inhibitory concentration (IC50) in data set [1] was greater than 1000 nM.
Consider `C=CC(=O)Nc1cccc(Nc2nc(Nc3ccc4c(c3)B(O)OC4(C)C)ncc2C(F)(F)F)c1`, for which the half-inhibitory concentration (IC50) was greater than 1000 nM in data set [2]; greater than 1000 nM in data set [3]; 2 nM in data set [1]; greater than 1000 nM in [7]; 1 nM in [8]. Moreover, the Ratio IC50 in the data set filed under Homo sapiens [4], in the data set filed under Homo sapiens [5] and in the data set listed under Homo sapiens [6] was greater than 1000 each time.
In [1], `C=CC(=O)Nc1ccc(OC)c(Nc2nc(Nc3ccc4c(c3)B(O)OC4)ncc2C(F)(F)F)c1` had an IC50 greater than 1000 nM.
Take `CN(C)C/C=C/C(=O)Nc1cccc(Nc2nc(Nc3ccc4c(c3)COB4O)ncc2C(F)(F)F)c1`: the IC50 in data set [1] was determined as 11.8 nM.
On the same count and under the same terms, as for `C=CC(=O)Nc1cccc(Oc2nc(Nc3ccc4c(c3)COB4O)ncc2C(F)(F)F)c1`, the figure is 6.5 nM.
For the molecule `C=CC(=O)Nc1cccc(Nc2nc(Nc3ccc(B(O)O)cc3)ncc2C(F)(F)F)c1`, the half-inhibitory concentration (IC50) in data set [2] was greater than 1000 nM; in data set [3], greater than 1000 nM; in [1], 1.5 nM; in data set [7] it was 891 nM; in [8] it was 0.3 nM. For the same molecule, the Ratio IC50 in the data set filed under Homo sapiens [4], in the data set listed under Homo sapiens [5] and in the data set filed under Homo sapiens [6] was greater than 1000 throughout.
For `C=CC(=O)N1CCCC(Nc2nc(Nc3ccc4c(c3)COB4O)ncc2C(F)(F)F)C1` (centres undefined), the IC50 in [1] was 36.8 nM.
Consider `C=CC(=O)Nc1cccc(Nc2nc(Nc3ccc4c(c3)COB4O)ncc2C(F)(F)F)c1`, for which the IC50 in [2] is greater than 1000 nM; in [3], greater than 1000 nM; in data set [1], 0.6 nM; in data set [7] it was 658 nM; in data set [8] it was 0.4 nM; in the data set on Raji it was 1700 nM. Also, the IC50 in the data set on Ramos was 500 nM; in the data set with HEL, 1100 nM; in the data set on JeKo-1, 500 nM; in the data set on OCI-Ly10, 1000 to 10000 nM. The Ratio IC50 in the data set listed under Homo sapiens [4], in the data set listed under Homo sapiens [5] and in the data set filed under Homo sapiens [6] was greater than 1000 throughout. The half-life at 1 h, 0.2 µM in “in vitro [9]” was found to be 58.8 min. In “in vitro [10]”, the microsomal CLint at 1 h, 0.2 µM stood at 23.6 µL/min/mg. The fraction remaining at 1 h, 0.2 µM in the data set “in vitro [11]” came to 47.2%.
Turning to `C=CC(=O)Nc1cccc(Nc2nc(Nc3ccc4c(c3)B(O)OC4)ncc2Cl)c1`, the concentration for half-maximal inhibition (IC50) in [1] came to 4.7 nM.
